Test results published in patent US7776566B2, “Method for producing purine nucleoside by fermentation” (priority 1997, dated 2010).

Columns and labels:
Assay type in all cases: biochemical, E. coli
[1] = biological target: T1, PRPP amidotransferase (PurF), wild type (Escherichia coli, UniProt P0AG16); experiment: PRPP amidotransferase activity of crude enzyme extracts and inhibition by AMP and GMP (wild type purF, pKFpurF); conditions: JM109/pKFpurF crude extract, activity with None 0.68
T1 construct: made in house; host or cells: E. coli JM109 (crude enzyme extract)
T1 sequence (P0AG16 2-505): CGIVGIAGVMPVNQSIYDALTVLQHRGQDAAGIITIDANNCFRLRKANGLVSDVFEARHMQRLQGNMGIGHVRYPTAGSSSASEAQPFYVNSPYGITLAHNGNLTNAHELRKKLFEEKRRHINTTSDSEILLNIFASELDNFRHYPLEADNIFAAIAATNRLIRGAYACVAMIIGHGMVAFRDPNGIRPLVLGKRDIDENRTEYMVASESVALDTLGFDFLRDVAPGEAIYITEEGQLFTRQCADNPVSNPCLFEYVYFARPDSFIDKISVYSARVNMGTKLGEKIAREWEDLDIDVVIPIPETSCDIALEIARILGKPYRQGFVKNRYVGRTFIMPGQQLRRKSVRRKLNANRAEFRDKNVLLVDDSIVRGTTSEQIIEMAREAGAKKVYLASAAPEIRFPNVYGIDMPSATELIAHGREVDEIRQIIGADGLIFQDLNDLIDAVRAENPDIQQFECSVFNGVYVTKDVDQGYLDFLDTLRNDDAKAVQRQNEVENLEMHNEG
Experimental: (§1) Recombinant bacteria obtained by transforming E. coli JM109 cells with the above plasmids were cultured in LB liquid medium for eight hours, and collected, and crude enzyme extracts were prepared from them. The PRPP amidotransferase activity of the extracts and degrees of inhibition by AMP and GMP were measured according to the method of L. J. Messenger (J. Biol. Chem., 254, 3382 (1979)).

[2] = biological target: T2, PRPP amidotransferase (PurF) K326Q (Escherichia coli, UniProt P0AG16, K327Q); experiment: PRPP amidotransferase activity of crude enzyme extracts and inhibition by AMP and GMP (mutant purF, pKFpurFKQ); conditions: JM109/pKFpurFKQ crude extract, activity with None 0.34
T2 construct: made in house; host or cells: E. coli JM109 (crude enzyme extract)
T2 sequence (P0AG16 2-505 K327Q): as the sequence (P0AG16 2-505) above, with K326Q counted along it
Experimental: (§2) A purF fragment was excised from the plasmid carrying the purF of about 1530 bp cloned into pCRTMII vector (Invitrogen) in Section 1) by digestion with PstI and HindIII, and inserted between the PstI and HindIII sites of the multi-cloning site of a plasmid for introducing mutation, pKF18 (Takara Shuzo) to obtain the target clone (pKFpurF). […] Therefore, the following synthetic DNA primers were prepared for gene substitution realizing mutations of Lys (K) at position 326 and Pro (P) at position 410 of PRPP amidotransferase (PurF) to Gln (Q) and Trp (W), respectively, and pKFpurF was subjected to site-directed mutagenesis according to the protocol of Site-directed Mutagenesis System Mutan-Super Express Km (Takara Shuzo) to introduce a site-directed mutation into the pKFpurF.
(§3) After the mutagenesis, 6 clones were randomly picked up from each of the resulting transformants, and plasmids were prepared from them. […]
as §1

[3] = biological target: T3, PRPP amidotransferase (PurF) K326Q + P410W (Escherichia coli, UniProt P0AG16, K327Q/P411W); experiment: PRPP amidotransferase activity of crude enzyme extracts and inhibition by AMP and GMP (mutant purF, pKFpurFKQPW); conditions: JM109/pKFpurFKQPW crude extract, activity with None 0.18
T3 construct: made in house; host or cells: E. coli JM109 (crude enzyme extract)
T3 sequence (P0AG16 2-505 K327Q/P411W): as the sequence (P0AG16 2-505) above, with K326Q, P410W counted along it
Experimental: as §2, §3, §1

[4] = biological target: T4, PRPP synthetase (Prs) D128A (Escherichia coli, UniProt P0A717, D129A); experiment: PRPP synthetase activity of crude enzyme extracts and inhibition by ADP (mutant prsDA); conditions: mutant type
T4 construct: made in house; host or cells: E. coli JM109 (crude enzyme extract)
Experimental: A prs fragment was excised from the plasmid carrying the prs of about 1 kb cloned in Section 1) by SalI and SphI digestion, and inserted between the SalI and SphI sites of the multi-cloning site of a plasmid for introducing mutation, pKF19k (Takara Shuzo) to obtain the target clone (pKFprs). […] It is also described that the enzyme whose Asp (D) at position 128 is mutated to Ala (A) is partially desensitized. Therefore, the following synthetic DNA primer was prepared for gene substitution realizing mutation of Asp (D) at position 128 PRPP synthetase (Prs) to Ala (A), and pKFprs was subjected to site-directed mutagenesis according to the protocol of Site-directed Mutagenesis System Mutan-Super Express Km (Takara Shuzo) to introduce a site-directed mutation into the pKFprs. […]
Recombinant bacteria obtained by transforming E. coli JM109 cells with the above four plasmids were cultured in LB liquid medium for eight hours, and collected, and crude enzyme extracts were prepared from them. The PRPP synthetase activity of the extracts and degrees of inhibition by ADP were measured according to the method of K. F. Jensen et al. (Analytical Biochemistry, 98, 254-263 (1979)) which was partially modified. Specifically, [a-^32P]ATP was used as the substrate and [^32P]AMP produced by the reaction was measured.

Nc1ncnc2c1ncn2[C@@H]1O[C@H](COP(=O)(O)O)[C@@H](O)[C@H]1O [AMP, adenosine monophosphate]
PRPP amidotransferase activity, 10 mM AMP ([1]; 10 mM AMP): 0.48 µmol/min/mg | PRPP amidotransferase activity, 10 mM AMP ([2]; 10 mM AMP): 0.32 µmol/min/mg | PRPP amidotransferase activity, 10 mM AMP ([3]; 10 mM AMP): 0.16 µmol/min/mg

Nc1nc2c(ncn2[C@@H]2O[C@H](COP(=O)(O)O)[C@@H](O)[C@H]2O)c(=O)[nH]1 [GMP, guanosine monophosphate]
PRPP amidotransferase activity, 10 mM GMP ([1]; 10 mM GMP): 0.10 µmol/min/mg | PRPP amidotransferase activity, 10 mM GMP ([2]; 10 mM GMP): 0.33 µmol/min/mg | PRPP amidotransferase activity, 10 mM GMP ([3]; 10 mM GMP): 0.17 µmol/min/mg

Nc1ncnc2c1ncn2[C@@H]1O[C@H](COP(=O)(O)OP(=O)(O)O)[C@@H](O)[C@H]1O [ADP, adenosine diphosphate]
PRPP synthetase (Prs) specific activity, 5 mM ADP ([4]; JM109/pSTVprsDA, medium copy, activity with None 10.6): 2.7 nmole/min/mg crude enzyme extract | PRPP synthetase (Prs) specific activity, 5 mM ADP ([4]; JM109/pUCprsDA, high copy, activity with None 80.8): 20.2 nmole/min/mg crude enzyme extract
